Assays:
HCT116 MTAP null cells = assay: HCT116 proliferation assay, MTAP null cells (CellTiter-Glo, 6 days); format: cell-based; settings: HCT116-MTAP null, 144 h, read-out: Protif_ HCT116-MTAP null IC50
Summary of the method: (§1)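 Cells were plated in RPMI 1640 with 10% fetal bovine serum and left overnight at 37° C and 5% CO2. Compound was then added as an 8- or 9-point 1:3 dilution series from a top concentration of 1 or 10 µM, alongside a DMSO-only control. Viability was read by luminescence.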

HCT116 WT cells = assay: HCT116 proliferation assay, WT cells (CellTiter-Glo, 6 days); format: cell-based; settings: Homo sapiens, HCT-116, 144 h, read-out: Prolif_HCT116-WT IC50
Summary of the method: as §1

Structure (SMILES) | IC50 (HCT116 MTAP null cells) [nM] | IC50 (HCT116 WT cells) [nM]
Cc1cc2cc(C(=O)N(Cc3ccc(C#N)c(C)n3)[C@H](C)c3ncccn3)ccc2nc1N [Example 750, 2-amino-N-((5-cyano-6-methyl-2-pyridinyl)methyl)-3-methyl-N-((1R)-1-(2-pyrimidinyl)ethyl)-6-quinolinecarboxamide] | 177 | 3140
CO[C@@H]1Cc2ccccc2[C@H]1N(Cc1ccc(C(F)(F)F)cn1)C(=O)c1ccc2nc(N)c(C)cc2c1 [Example 751, 2-amino-N-((1R,2R)-2-methoxy-2,3-dihydro-1H-inden-1-yl)-3-methyl-N-((5-(trifluoromethyl)-2-pyridinyl)methyl)-6-quinolinecarboxamide] | 144 | 1740
CO[C@H]1Cc2ccccc2[C@@H]1N(Cc1ccc(C(F)(F)F)cn1)C(=O)c1ccc2nc(N)c(C)cc2c1 [Example 752, 2-amino-N-((1S,2S)-2-methoxy-2,3-dihydro-1H-inden-1-yl)-3-methyl-N-((5-(trifluoromethyl)-2-pyridinyl)methyl)-6-quinolinecarboxamide] | 119 | 1740
CC(=O)c1ccc(CN(C(=O)c2ccc3nc(N)c(C)cc3c2)[C@H](C)c2ncccn2)nc1 [Example 754, N-((5-acetyl-2-pyridinyl)methyl)-2-amino-3-methyl-N-((1R)-1-(2-pyrimidinyl)ethyl)-6-quinolinecarboxamide] | 130 | 4110
CC[C@H](c1ncccn1)N(Cc1ccc(C#N)cn1)C(=O)c1ccc2nc(N)c(I)cc2c1 [Example 760, (R)-2-amino-N-((5-cyanopyridin-2-yl)methyl)-3-iodo-N-(1-(pyrimidin-2-yl)propyl)quinoline-6-carboxamide] | 100 | 2930
C[C@H](c1ncccn1)N(Cc1ccc(C(F)(F)F)cn1)C(=O)c1ccc2nc(N)ccc2c1 [Example 765, (R)-2-amino-N-(1-(pyrimidin-2-yl)ethyl)-N-((5-(trifluoromethyl)pyridin-2-yl)methyl)quinoline-6-carboxamide] | 180 | 512
C[C@H](c1ncccn1)N(Cc1ccc(Cl)cn1)C(=O)c1cnc2nc(N)c(I)cc2c1 [Example 768, (R)-7-amino-N-((5-chloropyridin-2-yl)methyl)-6-iodo-N-(1-(pyrimidin-2-yl)ethyl)-1,8-naphthyridine-3-carboxamide] | 116 | 3960
C[C@H](c1ncccn1)N(Cc1ccc(C#N)c(Cl)n1)C(=O)c1ccc2nc(N)c(I)cc2c1 [Example 769, (R)-2-amino-N-((6-chloro-5-cyanopyridin-2-yl)methyl)-3-iodo-N-(1-(pyrimidin-2-yl)ethyl)quinoline-6-carboxamide] | 52 | 5010
Cc1cc2c(C)c(C(=O)N(Cc3ccc(C(F)(F)F)cn3)[C@H](C)c3ncccn3)ccc2nc1N [Example 770, 2-amino-3,5-dimethyl-N-((1R)-1-(2-pyrimidinyl)ethyl)-N-((5-(trifluoromethyl)-2-pyridinyl)methyl)-6-quinolinecarboxamide] | 132 | 4750
COC[C@@H](C)N(Cc1ccc(C(F)(F)F)cn1)C(=O)c1ccc2nc(N)c(C)cc2c1C [Example 771, 2-amino-N-((2R)-1-methoxy-2-propanyl)-3,5-dimethyl-N-((5-(trifluoromethyl)-2-pyridinyl)methyl)-6-quinolinecarboxamide] | 270 | > 10000
CCOc1ccc(CN(C(=O)c2cnc3nc(N)c(I)cc3c2)[C@H](C)c2ncccn2)nn1 [Example 772, (R)-7-amino-N-((6-ethoxypyridazin-3-yl)methyl)-6-iodo-N-(1-(pyrimidin-2-yl)ethyl)-1,8-naphthyridine-3-carboxamide] | 437 | 17600

Continued, values first:

IC50 (HCT116 MTAP null cells) [nM] | IC50 (HCT116 WT cells) [nM] | Structure (SMILES)
228 | 5950 | COc1ccc(CN(C(=O)c2ccc3nc(N)c(C)cc3c2)C(C)c2ncn(C)n2)nn1 (centres unmarked) [Example 756, 2-amino-N-((6-methoxypyridazin-3-yl)methyl)-3-methyl-N-(1-(1-methyl-1H-1,2,4-triazol-3-yl)ethyl)quinoline-6-carboxamide]
313 | 8870 | Cc1cc2cc(C(=O)N(Cc3ccc(Br)nn3)[C@@H]3CCCn4ncnc43)c(F)cc2nc1N [Example 757, (R)-2-amino-N-((6-bromopyridazin-3-yl)methyl)-7-fluoro-3-methyl-N-(5,6,7,8-tetrahydro-[1,2,4]triazolo[1,5-a]pyridin-8-yl)quinoline-6-carboxamide]
337 | > 10000 | Nc1nc2ccc(C(=O)N(Cc3ccc(Br)nn3)[C@@H]3CCCn4ncnc43)cc2cc1Br [Example 758, (R)-2-amino-3-bromo-N-((6-bromopyridazin-3-yl)methyl)-N-(5,6,7,8-tetrahydro-[1,2,4]triazolo[1,5-a]pyridin-8-yl)quinoline-6-carboxamide]
293 | > 10000 | CC[C@H](c1ncccn1)N(Cc1ccc(C#N)cn1)C(=O)c1ccc2nc(N)c(Br)cc2c1 [Example 759, (R)-2-amino-3-bromo-N-((5-cyanopyridin-2-yl)methyl)-N-(1-(pyrimidin-2-yl)propyl)quinoline-6-carboxamide]
64 | 1350 | Cc1cc2cc(C(=O)N(Cc3ccc(C4CC4)nn3)[C@H](C)c3ncccn3)ccc2nc1N [Example 761, (R)-2-amino-N-((6-cyclopropylpyridazin-3-yl)methyl)-3-methyl-N-(1-(pyrimidin-2-yl)ethyl)quinoline-6-carboxamide]
180 | 8800 | C[C@H](c1ncccn1)N(Cc1ccc(C2CC2)nn1)C(=O)c1ccc2nc(N)c(Br)cc2c1 [Example 762, (R)-2-amino-3-bromo-N-((6-cyclopropylpyridazin-3-yl)methyl)-N-(1-(pyrimidin-2-yl)ethyl)quinoline-6-carboxamide]
57 | 4340 | C[C@H](c1ncccn1)N(Cc1ccc(C2CC2)nn1)C(=O)c1ccc2nc(N)c(I)cc2c1 [Example 763, (R)-2-amino-N-((6-cyclopropylpyridazin-3-yl)methyl)-3-iodo-N-(1-(pyrimidin-2-yl)ethyl)quinoline-6-carboxamide]
287 | 4220 | Cc1cc2cc(C(=O)N(Cc3ccc(N4CCOCC4)cn3)[C@H](C)c3ncccn3)ccc2nc1N [Example 764, (R)-2-amino-3-methyl-N-((5-morpholinopyridin-2-yl)methyl)-N-(1-(pyrimidin-2-yl)ethyl)quinoline-6-carboxamide]
161 | 5900 | CC(c1cscn1)N(Cc1ccc(C(F)(F)F)nn1)C(=O)c1cnc2nc(N)c(Br)cc2c1 (centres unmarked) [Example 766, 7-amino-6-bromo-N-(1-(thiazol-4-yl)ethyl)-N-((6-(trifluoromethyl)pyridazin-3-yl)methyl)-1,8-naphthyridine-3-carboxamide]
56 | 3550 | C[C@H](c1ncccn1)N(Cc1ccc(Br)nn1)C(=O)c1ccc2nc(N)c(I)cc2c1 [Example 767, (R)-2-amino-N-((6-bromopyridazin-3-yl)methyl)-3-iodo-N-(1-(pyrimidin-2-yl)ethyl)quinoline-6-carboxamide]
304 | > 10000 | C[C@H](c1ncccn1)N(Cc1ccc(Cl)nn1)C(=O)c1ccc2nc(N)c(Br)cc2c1 [Example 773, (R)-2-amino-3-bromo-N-((6-chloropyridazin-3-yl)methyl)-N-(1-(pyrimidin-2-yl)ethyl)quinoline-6-carboxamide]

From patent US20230159510A1, “NOVEL PRMT5 INHIBITORS” (AMGEN INC., priority 2020, published 2023)
